Data: patent US7709645B2, “Pyrrolo-pyridine kinase modulators” (SGX Pharmaceuticals, Inc., priority 2004, dated 2010)
Residue numbers refer to the chain shown, from its start.

Tests used:
[1] = biological target: T1, T315I mutant form of BCR-ABL in Ba/F3 cells (Homo sapiens, UniProt P00519, T315I); assay: Abl_T315I p-ELISA Cellular Assay (BCR-ABL phospho-ELISA); format: cell-based; details: 60-120 minutes incubation
T1 construct: expressed in transfected cells; host or cells: Ba/F3 cells; the other entry of the earlier key: BCR (P11274, Breakpoint cluster region protein)
T1 sequence (P00519 242-493 T315I limits assumed): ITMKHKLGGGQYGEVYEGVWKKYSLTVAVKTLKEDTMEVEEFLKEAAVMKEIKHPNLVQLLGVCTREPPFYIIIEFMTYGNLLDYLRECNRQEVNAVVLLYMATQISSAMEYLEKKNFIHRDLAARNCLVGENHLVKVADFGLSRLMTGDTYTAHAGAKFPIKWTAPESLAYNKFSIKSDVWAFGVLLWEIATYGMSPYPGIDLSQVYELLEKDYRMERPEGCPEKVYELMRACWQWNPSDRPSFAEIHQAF
Experimental: Cells (Ba/F3 cells transfected with WT BCR-ABL, other kinases, or T315I, Y253F, M351T, E255K, or other mutant forms of BCR-ABL) were grown in the absence of IL-3 at least ½ week before the assay. The day before assay, the cells were fed with fresh media so that at the time of assay the cells were in log phase. Ba/F3 cells that had been grown in the absence of IL-3 for at least ½ week were resuspended in RPMI 1640 so that each well of a 96-well plate would contain approximately 200,000 cells. Cells were distributed in a 96-well plate containing serially diluted concentrations of test compounds. Cells were typically incubated with or without test compounds for 60-120 minutes at 5% CO2, 37° C. The incubation was performed with or without other additives such as 10% FCS or 50% human plasma. After incubation of compounds, lysis buffer was added and incubated for 10-15 minutes; the lysate was cleared by centrifugation.
To make the ELISA plate, commercially available Anti-ABL antibodies (e.g. (Ab-3, Calbiochem OP20) were prepared at a concentration of 0.125 μg/ml in coating buffer (0.1M Na-carbonate, pH 9.5), and plated at 10 ml per plate (12.5 μl 100 μg/ml Ab/10 ml). In a high binding multi-well plate, 100 μl Ab in coating buffer were added to each well, and each plate was covered with a plate seal and incubated overnight at 4° C.
Excess antibody was removed and the ELISA plate was washed 3-4 times with 200 μl of wash buffer (0.05% Tween in PBS, pH 7.4). 150 μl of lysate (see above) were transferred to the ELISA plate. Plates were sealed and incubated 2 hours at room temperature. The detection antibody (e.g. HRP conjugated anti-pTyr or unconjugated α-p-Y 4G10, Upstate) was prepared in assay diluent. The antibody was diluted 1:1000 (stock=2 μg/μl, 200 μg in 100 μl; f.c.=2 μg/ml) in assay diluent and 10 ml of diluted antibody per plate were added. The lysate was removed from the ELISA plates, and wells were washed four times with 200 μl of wash buffer per well. 100 μl of detection antibody was added to each well; the plate was covered, and incubated 1 hr at room temperature (21° C.). Excess detection antibody was removed from the ELISA plates, and the wells were washed four times with 200 μl of wash buffer per well.
If necessary, (i.e. for unconjugated anti-pTyr antibody) secondary antibody (goat anti-rabbit HRP) was diluted 1:3000 in assay diluent (3.33 μl per 10 ml diluent) and added at 10 ml of diluted antibody per plate. Excess secondary antibody was removed from the ELISA plate, and the plate was washed four times with 200 μl per well of wash buffer.
Substrate Reagent A and Substrate Reagent B (Pierce Cat#37070 SuperSignal ELISA Pico Chemiluminescent Substrate) were added immediately before use (10 ml resultant solution per plate). 100 μl substrate were added per well, mixed for 1 minute, and chemiluminescent signal was measured with a luminometer.

[2] = biological target: T2, Abl T315I kinase domain (unphosphorylated) (Mus musculus, UniProt P00520, T315I); assay: Abl_T315I Bioassay (c-Abl PK/LDH coupled enzyme assay); format: biochemical; details: 10 μM ATP
T2 construct: purified and unphosphorylated T315I Abl kinase domain; made in house; host or cells: E. coli BL21(DE3) strains
T2 sequence (P00520 242-493 T315I limits assumed): T1 sequence (P00519 242-493 T315I limits assumed) with N95S
Text: Although the first of these examples uses the kinase domain of a mutant form of Abl T315I (“Abl T315I KD”), the kinase assays may use various forms of mutant and wild type enzymes, including, for example, the entire protein, the kinase domain, or a portion thereof (e.g. Abl Y393F). The kinases used in the assays may also be of varying phosphorylation states. In the c-Abl example, a mutant kinase at a zero phosphorylation state was used.
In the c-Abl Pyruvate Kinase (PK)/Lactate Dehydrogenase (LDH) Coupled Assay the protein kinase dependant phosphorylation of a substrate peptide was coupled to the oxidation of NADH. The oxidation of NADH to NAD+ was detected by monitoring a decrease in absorbance at 340 nm.
Materials: Abl substrate peptide=EAIYAAPFAKKK (SEQ ID NO:1)-OH (Biopeptide, San Diego, Calif.); βNADH (Sigma Cat#N-8129, FW=709.4); 2M MgCl2; 1M HEPES buffer, pH 7.5; Phosphoenolpyruvate (PEP) (Sigma Cat#P-7002, FW=234); Lactate dehydrogenase (LDH) (Worthington Biochemical Cat#2756); Pyruvate Kinase (PK) (Sigma Cat#P-9136); ATP (Sigma Cat#A-3377, FW=551); Greiner 384-well UV star plate; and purified and unphosphorylated T315I Abl kinase domain.
Stock Solutions: 10 mM NADH (7.09 mg/ml in miliQH2O) made fresh daily; 10 mM Abl substrate peptide (13.4 mg/ml in miliQH2O) stored at −20° C.; 100 mM HEPES buffer, pH 7.5 (5 ml 1M stock+45 ml miliQH2O); 100 mM MgCl2 (5 ml 2M MgCl2+95 ml dH2O); 100 mM PEP (23.4 mg/ml in dH2O) stored at −20° C.; 10 mM ATP (5.51 mg/ml in dH2O) stored at −20° C. (diluted 50 μl into total of 10 ml miliQH2O daily=50 μM ATP working stock); 1000 U/ml PK (U/mg varies with lot) flash-frozen under liquid N2 and stored at −80° C.; and 1000 U/ml LDH (U/mg varies with lot) flash-frozen under liquid N2 and stored at −80° C.
Standard Assay Setup for 384-well format (50 μl reaction): 300 μM NADH; 10 mM MgCl2; 2 mM PEP; 45 U/ml PK; 60 U/ml LDH; 200 μM Abl substrate peptide; 2.5 μl test compound (in DMSO); 2 μg/ml Abl kinase domain; 10 μM ATP; 100 mM HEPES buffer. Positive controls contained DMSO with no test compound. Negative controls contained 5 μl of 0.5M EDTA (50 mM in the assay). The dephosphorylated form of the c-Abl T315I mutant was used in the biochemical screening assays. The kinase reaction was initiated at time t=0 by the addition of ATP.
Activity was measured by following the time-dependent loss of NADH by absorbance spectroscopy at 340 nm. The linear portion of the resulting progress curve was then analyzed by linear regression to get the activity in absorbance units/time, reported as the slope of that best fit line (moles/unit time can be calculated from using molar extinction coefficient for NADH at 340 nm, 6250M^−1 cm^−1).
Data was evaluated using the equation: Z′=1−[3*(σ++σ−)/|μ+−μ−|](Zhang, et al., 1999 J Biomol Screening 4(2) 67-73), where μ denotes the mean and σ the standard deviation. The subscript designates positive or negative controls. The Z′ score for a robust screening assay should be ≧0.50. The typical threshold=μ+−3*σ+. Any value that falls below the threshold was designated a “hit”.
Dose response was analyzed using the equation: y=min+{(max−min)/(1+10^[compound]−logIC50)}, where y is the observed initial slope, max=the slope in the absence of inhibitor, min=the slope at infinite inhibitor, and the IC50 is the [compound] that corresponds to ½ the total observed amplitude (Amplitude=max−min).
To measure modulation, activation, or inhibition of Abl KD, a test compound was added to the assay at a range of concentrations. Inhibitors may inhibit Abl KD activity at an IC50 in the micromolar range, the nanomolar range, or, for example, in the subnanomolar range.
An open-reading frame for c-Abl was amplified from a Mus musculus (mouse) cDNA library prepared from freshly harvested mouse liver using a commercially available kit (Invitrogen) by PCR using the following primers: […]
The c-Abl T315I KD (kinase domain) was purified as follows. […]

Row | IC50 [1] [nM] | IC50 [2] [nM] | SMILES
1 |  | < 50 | COc1ccccc1-c1c[nH]c2ncc(-c3cccc(C(=O)N(C)CCN(C)C)c3)cc12 [AE23]
2 | < 100 | < 50 | COc1ccccc1-c1c[nH]c2ncc(-c3cccc(C(=O)N4CCC(CO)CC4)c3)cc12 [AE6]
3 | 100 to 1000 | < 50 | COc1ccccc1-c1c[nH]c2ncc(-c3csc(C(=O)N4CCN(C)CC4)c3)cc12 [AE4]
4 | < 100 | < 50 | COc1cccc(OC)c1-c1c[nH]c2ncc(-c3cccc(C(=O)N4CCOCC4)c3)cc12 [AE37]
5 |  | < 50 | COc1ccccc1-c1c[nH]c2ncc(-c3cccc(C(=O)N4CCN(CCN5CCOCC5)CC4)c3)cc12 [AE24]
6 | 100 to 1000 | < 50 | O=C(c1cccc(-c2cnc3[nH]cc(-c4ccccc4F)c3c2)c1)N1CCOCC1 [AE29]
7 | < 100 | < 50 | COc1ccccc1-c1c[nH]c2ncc(-c3cccc(C(=O)N4CCN(C(C)C)CC4)c3)cc12 [AE7]

Second part, the compound before the results:

Row | SMILES | IC50 [1] [nM] | IC50 [2] [nM]
8 | COc1ccccc1-c1c[nH]c2ncc(-c3ccc(O)c(C(=O)N(C)CCN(C)C)c3)cc12 [AE25] | < 100 | < 50
9 | CCc1ccccc1-c1c[nH]c2ncc(-c3cncc(C(=O)N(C)C)c3)cc12 [AE15] | 100 to 1000 | < 50
10 | Oc1cccc(-c2cnc3[nH]cc(-c4ccoc4)c3c2)c1 [AE47] |  | < 50
11 | CCc1ccccc1-c1c[nH]c2ncc(-c3ccnc(F)c3)cc12 [AE18] | 100 to 1000 | < 50
12 | COc1ccccc1-c1c[nH]c2ncc(-c3c[nH]cn3)cc12 [AE19] | 100 to 1000 | < 50
13 | COc1ccccc1-c1c[nH]c2ncc(-c3cncc(C(=O)N(C)CCN(C)C)c3)cc12 [AE5] | < 100 | < 50
14 | COc1ccccc1-c1c[nH]c2ncc(-c3ccc4c(c3)C(=O)NCC(=O)N4)cc12 [AE12] |  | < 50
15 | CCOc1ccccc1-c1c[nH]c2ncc(-c3cncc(C(=O)N(C)C)c3)cc12 [AE16] | 100 to 1000 | < 50
16 | CCOc1ccccc1-c1c[nH]c2ncc(-c3cncc(C(=O)NC)c3)cc12 [AE17] |  | < 50
17 | Oc1cccc(-c2cnc3[nH]cc(Sc4ccccc4)c3c2)c1 [AE51] |  | 50 to 200
